Results on two molecules are retold here after patent US10111847B2, “Compounds and methods for modulating vascular injury” (The Regents of the University of California, priority 2012, dated 2018).

One test deals with IKKα/β subunit. Description: TNFα induced phosphorylation of IKKα/β in sv-ECs, western blot. Format: cell-based, human. The settings on record: 100 nm, 30 min; TNFα 1 ng/ml 15 min. The protocol:
Mar-1. VSMCs and ECs were lysed in buffer (20 mM Tris-Hcl, 137 mM NaCl, 10% Glycerol, 1% NP-40) with protease and phosphatase inhibitors (Halt inhibitor capsules, Pierce, Inc) by sonication on ice. The lysates were instantly snap frozen in liquid nitrogen and thawed back later for western blotting. After centrifugation (15,000 g for 20 minutes), the whole cell extract (supernatant) was collected and was heated at 100° C. in Laemlli buffer for 6 minutes. Lysates were run on Mini-Protean TGX gels
(Biorad) and transferred on PVDF membranes which were probed with appropriate primary and secondary antibodies and visualized for quantitation using q-dot nanocrystals (Life Technologies, Inc).
Cells were pretreated with 100 nm of 7S/7R-Maresin-1 for 30 min, followed by TNFα (10 ng/ml for VSMC and 1 ng/ml for EC) for 15 min. Whole cell lysates were collected and probed for pan and phospho IKK (Cell Signaling Inc.).
FIG. 18. IKK-phospho and total IKK western blotting image is representative of three independent experiments. Bar graph represents net quantitative densitometry analysis. N=3. P≤0.05, One-way ANOVA with Dunnett's post hoc test. *: P≤0.05 compared to control, unpaired t-test. †: P≤0.05 compared to TNFα, unpaired t-test. Error bars: SEM.

A further test concerns rabbit femoral artery. Description: Rabbit femoral artery balloon injury, neointimal hyperplasia at 28 days. Format: in vivo, New Zealand White Rabbits. The settings on record: 10 nM local; 28 days after injury; vehicle 0.38±0.04; P=0.002. The procedure: All animal experiments are performed under a protocol approved by University of California San Francisco Animal Care Committee. New Zealand White Rabbits (NZWR, Western Oregon Rabbit Company, Philomath, Oreg.) weighing 3 to 5 kg and maintained on a normal chow diet are used in all experiments. Animals are anesthetized for surgical procedures with intramuscular injection of ketamine (25 mg/kg) and xylazine (5 mg/kg), and maintained with inhalation of isoflurane. The balloon injury model is made as described by Conte et al. “Efficient repopulation of denuded rabbit arteries with autologous genetically modified endothelial cells,” Circulation. 1994; 89:2161-2169. Rabbits undergo bilateral external iliac and femoral artery injury with 2F Fogarty balloon catheter (Applied Medical Resources Corp. Rancho Santa Margarita, Calif.). After balloon injury RvD2 (10 nM, Cayman chemical, Ann Arbor, Mich.) is infused to luminal area of the right femoral artery and control vehicle (normal saline with 0.1% ethanol) is infused to the left femoral artery, and then left undisturbed for 20 minutes. For evaluation of acute effects the rabbits are euthanized at 3 days after injury by intravenous overdose of sodium Nembutal. The femoral arteries are harvested and cryosection is made for immunohistochemistry, and total RNA from treated and control tissue is isolated. […]

A further test relates to carotid artery. Description: Mouse carotid artery ligation model, neointima formation. The format is in vivo, FVB Mice. The note with it: intraperitoneal 100 ng/dose on days 0, 1, 3, 5 and 7; sacrificed at 14 days. The protocol:
To examine the potential therapeutic effects of systemic administration of pro-resolving mediators in acute vascular injury, a standardized mouse model of carotid ligation was employed. FVB Mice (N=23) were treated with intraperitoneal administration of RvD2 (100 ng/dose), 7R Mar-1 (100 ng/dose) or vehicle on days 0 (4 hrs prior to carotid injury), 1, 3, 5 and 7. Total dose received was 500 ng/mouse. Unilateral carotid ligation was performed as a standardized model of vascular injury, induced by low shear. Animals were then sacrificed at 14 days and perfusion-fixed vessels explanted for analysis. Following elastin staining, neointima (NI) and medial (M) compartments were measured by a blinded observer, and ratios (area and average wall thickness) calculated. Analysis was performed at mid CCA level (2.5 mm from ligature).
FIG. 22. (A)-(C), depict a cross-section of a carotid artery at mid CCA level (2.5 mm from ligature) from carotid ligation mouse model administered vehicle (A), RvD2 (B), or 7R-Mar-1 (C). (D)-(E) depict NUM ratio of the cross-section of the carotid artery at mid CCA level from carotid ligation mouse model administered vehicle, RvD2, or 7R-Mar-1. […]

With `CC/C=C\C/C=C\C[C@H](O)\C=C/C=C/C=C/[C@@H](O)C/C=C\CCC(=O)O` [7S-Maresin-1, 7S,14R-dihydroxydocosa-4Z,8E,10Z,12Z,16Z,19Z-hexaenoic acid], the “TNFα induced phosphorylation of IKKα/β subunit in human sv-ECs” value in the test with IKKα/β subunit was “Reduce”.

In the test on rabbit femoral artery, `CC/C=C\C[C@H](O)[C@H](O)/C=C/C=C/C=C\C=C\[C@@H](O)C/C=C\CCC(=O)O` [RvD2, resolvin D2] displayed a neointimal area of 0.27±0.03 mm^2. Also, the “neointima formation following carotid artery ligation” value with carotid artery is reported as “Reduces”.
